Test results published in ChEMBL document CHEMBL1157920, “Inhibition of antigen-induced degranulation by aryl compounds isolated from the bark of Betula platyphylla in RBL-2H3 cells” (2010).

Legend:
RBL-2H3 [1] = test: Inhibition of anti-DNP-IgE-induced degranulation in rat RBL2H3 cells assessed as betahexosaminidase released at 100 uM after 20 mins by microplate reader assay; assay type: functional; settings: RBL-2H3, 20 min
RBL-2H3 [2] = test: Inhibition of anti-DNP-IgE-induced degranulation in rat RBL2H3 cells assessed as betahexosaminidase released at 10 uM after 20 mins by microplate reader assay; assay type: functional; settings: RBL-2H3, 20 min

With `O=C(CCc1ccc(O)cc1)C[C@@H](CCc1ccc(O)cc1)O[C@@H]1O[C@H](CO[C@@H]2OC[C@](O)(CO)[C@H]2O)[C@@H](O)[C@H](O)[C@H]1O[C@H]1OC[C@@](O)(CO)[C@@H]1O` the inhibition at 100 µM (RBL-2H3 [1]) was 23.4% and the inhibition at 10 µM (RBL-2H3 [2]) was 11.8%.

`C[C@H](CCc1ccc(O)cc1)O[C@H]1O[C@H](COC(=O)C[C@@](C)(O)CC(=O)O)[C@@H](O)[C@H](O)[C@H]1O` was tested, and the inhibition at 100 µM (RBL-2H3 [1]) was 20% and the inhibition at 10 µM (RBL-2H3 [2]) was 26.6%.

`Oc1ccc(CCCC[C@@H](O)CCc2ccc(O)cc2)cc1` was tested, and the inhibition at 100 µM (RBL-2H3 [1]) was 31.5% and the inhibition at 10 µM (RBL-2H3 [2]) was 19.2%.

`OC[C@]1(O)CO[C@@H](OC[C@H]2O[C@@H](O[C@H](CCCCc3ccc(O)cc3)CCc3ccc(O)cc3)[C@H](O[C@H]3OC[C@@](O)(CO)[C@@H]3O)[C@@H](O)[C@@H]2O)[C@H]1O` showed an inhibition at 100 µM (RBL-2H3 [1]) of 23.2% and an inhibition at 10 µM (RBL-2H3 [2]) of 22.1%.

`C[C@H](CCc1ccc(O)cc1)O[C@@H]1O[C@H](CO[C@@H]2OC[C@@](O)(CO)[C@@H]2O)[C@@H](O)[C@H](O)[C@H]1O` [APIOSYLRHODODENDRIN] showed an inhibition at 100 µM (RBL-2H3 [1]) of 26.7% and an inhibition at 10 µM (RBL-2H3 [2]) of 25.4%.

`OC[C@]1(O)CO[C@@H](OC[C@H]2O[C@@H](O[C@H](CCCCc3ccc(O)cc3)CCc3ccc(O)cc3)[C@H](O)[C@@H](O)[C@@H]2O)[C@H]1O` [ACEROSIDEVIII] was tested, and the inhibition at 100 µM (RBL-2H3 [1]) was 22.4% and the inhibition at 10 µM (RBL-2H3 [2]) was 11.7%.

In the case of `C[C@@H](O)CCc1ccc(O)cc1`, the inhibition at 100 µM (RBL-2H3 [1]) is reported as 36.5% and the inhibition at 10 µM (RBL-2H3 [2]) is reported as 29.7%.

Work on `O=c1c(O)c(-c2ccc(O)c(O)c2)oc2cc(O)cc(O)c12` [QUERCETIN] yielded an inhibition at 10 µM (RBL-2H3 [2]) of 32.9%.

`C[C@H](CCc1ccc(O)cc1)O[C@@H]1O[C@H](CO)[C@@H](O)[C@H](O)[C@H]1O` gave an inhibition at 100 µM (RBL-2H3 [1]) of 42.3% and an inhibition at 10 µM (RBL-2H3 [2]) of 25%.
